What was measured:
Prothrombin = Prothrombin (Homo sapiens, UniProt P00734); test: Inhibition of thrombin
[1] = molecular target: Urokinase-type plasminogen activator (Homo sapiens, UniProt P00749); test: Inhibition of uPA
[2] = Inhibition of Plasmin; set-up: species or system Homo sapiens
Trypsin = Trypsin (Homo sapiens, UniProt P07477+P07478+P35030); test: Inhibition of trypsin; type: protein assay
Coagulation factor X = Coagulation factor X (Homo sapiens, UniProt P00742)
[3] = Anticoagulant activity in human plasma by aPTT assay; type: functional
Plasma [4] = test: Anticoagulant activity in human plasma by TT assay; type: functional
Plasma [5] = test: Anticoagulant activity in human plasma by PT assay; type: functional
[6] = Permeability across Caco-2 cell membrane; type: ADME, cell-based; settings: human
[7] = Half life in iv dosed rat; type: ADME, organism-based; settings: in vivo
[8] = Bioavailability in rat at 5 mg/kg po; type: ADME, organism-based; settings: in vivo
Rattus norvegicus = test: Clearance in bile of rat at 5 mg/kg po; type: ADME, organism-based; set-up: dose 5 mg/kg, route oral; settings: in vivo
[9] = % of dose in urine of rat at 5 mg/kg po; type: ADME, organism-based; set-up: dose 5 mg/kg, route oral; settings: read-out: Compound in urine

Chain of Coagulation factor X (P00742 41-179 limits assumed): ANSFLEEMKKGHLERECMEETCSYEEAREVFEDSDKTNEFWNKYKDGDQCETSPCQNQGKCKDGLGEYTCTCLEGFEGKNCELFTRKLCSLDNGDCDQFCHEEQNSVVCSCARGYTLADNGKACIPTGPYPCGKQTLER
Chain of Coagulation factor X (P00742 235-488 limits assumed): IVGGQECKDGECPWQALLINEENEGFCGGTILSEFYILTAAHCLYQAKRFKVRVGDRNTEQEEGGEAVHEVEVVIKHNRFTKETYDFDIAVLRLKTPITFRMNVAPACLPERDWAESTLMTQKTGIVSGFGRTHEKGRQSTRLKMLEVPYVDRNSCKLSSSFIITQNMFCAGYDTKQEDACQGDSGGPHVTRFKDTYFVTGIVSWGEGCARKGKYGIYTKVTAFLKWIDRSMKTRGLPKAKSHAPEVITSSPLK

Compound	Ki (Prothrombin) [µM]	Ki [1] [µM]	Ki [2] [µM]	Ki (Trypsin) [µM]	Ki (Coagulation factor X) [nM]	IC200 [3] [µM]	IC200 (Plasma [4]) [µM]	IC200 (Plasma [5]) [µM]	Papp [6] [×10⁻⁶ cm/s]	half-life [7] [min]	bioavailability [8] [%]	CL_biliary (Rattus norvegicus) [%]	dose excreted [9] [%]
COC(=O)C(=O)NC(CCc1cccc[n+]1[O-])C(=O)N1CCC[C@H]1C(=O)NCc1cc(Cl)ccc1CN (stereo partly specified)	0.019	> 5	> 5	> 0.5	0.87	–	–	–	–	–	–	–	–
CCOC(=O)CN[C@H](CCc1cccc[n+]1[O-])C(=O)N1CCC[C@H]1C(=O)NCc1cc(Cl)ccc1CN	–	> 5	> 5	> 0.5	1.7	0.18	0.1	–	–	–	–	–	–
CCCCCCOC(=O)CN[C@H](CCc1cccc[n+]1[O-])C(=O)N1CCC[C@H]1C(=O)NCc1cc(Cl)ccc1CN	0.0078	> 5	> 5	> 0.5	–	–	–	–	–	–	–	–	–
NCc1ccc(Cl)cc1CNC(=O)[C@H](CCC(=O)O)NC(=O)C(CCc1cccc[n+]1[O-])NS(=O)(=O)Cc1ccccc1 (stereo partly specified)	20	> 5	> 5	> 0.5	–	–	–	–	–	–	–	–	–
C[C@H](NC(=O)[C@@H](CCc1cccc[n+]1[O-])NS(=O)(=O)Cc1ccccc1)C(=O)NCc1cc(Cl)ccc1CN	0.17	> 5	> 5	> 0.5	–	–	–	–	–	–	–	–	–
NCc1ccc(Cl)cc1CNC(=O)[C@H](CO)NC(=O)C(CCc1ccccn1)NS(=O)(=O)Cc1ccccc1 (stereo partly specified)	0.25	> 5	> 5	> 0.5	–	–	–	–	–	–	–	–	–
NCc1ccc(Cl)cc1CNC(=O)[C@@H]1CCCN1C(=O)[C@@H](CCc1cccc[n+]1[O-])NCC(=O)OC1CCCCC1	0.009	> 5	> 5	> 0.5	–	–	–	–	–	–	–	–	–
CCOC(=O)CC(=O)NC(CCc1cccc[n+]1[O-])C(=O)NCC(=O)NCc1cc(Cl)ccc1CN (stereo unspecified)	40	> 5	> 5	> 0.5	200	–	–	–	–	–	–	–	–
NCc1ccc(Cl)cc1CNC(=O)CNC(=O)C(CCc1cccc[n+]1[O-])NC(=O)CC(=O)O (stereo unspecified)	140	> 5	> 5	> 0.5	–	–	–	–	–	–	–	–	–
C[C@H](NC(=O)[C@@H](CCc1ccccn1)NS(=O)(=O)Cc1ccccc1)C(=O)NCc1cc(Cl)ccc1CN	0.024	> 5	> 5	> 0.5	0.084	–	–	–	–	–	–	–	–
CCOC(=O)CN[C@H](CCc1ccc(O)cc1)C(=O)N1CCC[C@H]1C(=O)NCc1cc(Cl)ccc1CN	0.0036	> 5	> 5	> 0.5	17	0.58	0.23	0.85	8.9	–	–	–	–
Nc1ccc(CNC(=O)CNC(=O)C(CCc2cccc[n+]2[O-])NS(=O)(=O)Cc2ccccc2)cn1 (stereo unspecified)	88	> 5	> 5	> 0.5	21	–	–	–	–	–	–	–	–
O=C(CNC(=O)[C@@H](CCc1cccc[n+]1[O-])NS(=O)(=O)Cc1ccccc1)NCCc1ccncc1	> 1000	> 5	> 5	> 0.5	3900	–	–	–	–	–	–	–	–
O=C(CNC(=O)[C@@H](CCc1cccc[n+]1[O-])NS(=O)(=O)Cc1ccccc1)NCc1cccc(Cl)c1	10	> 5	> 5	> 0.5	3.3	–	–	–	–	–	–	–	–
NCc1ccccc1CNC(=O)CNC(=O)C(CCc1cccc[n+]1[O-])NS(=O)(=O)Cc1ccccc1 (stereo unspecified)	40	> 5	> 5	> 0.5	32	–	–	–	–	–	–	–	–
O=C(CNC(=O)C(CCc1cccc[n+]1[O-])NS(=O)(=O)Cc1ccccc1)NCc1ccc(Cl)s1 (stereo unspecified)	190	> 5	> 5	> 0.5	53	–	–	–	–	–	–	–	–
O=C(CNC(=O)C(CCc1cccc[n+]1[O-])NS(=O)(=O)Cc1ccccc1)NCc1cccs1 (stereo unspecified)	140	> 5	> 5	> 0.5	52	–	–	–	–	–	–	–	–
CCCS(=O)(=O)NC(CCc1cccc[n+]1[O-])C(=O)NCC(=O)NCc1cc(Cl)ccc1CN (stereo unspecified)	2.7	> 5	> 5	> 0.5	–	0.45	6.5	–	–	–	–	–	–

Compound	Ki (Prothrombin) [µM]	Ki [1] [µM]	Ki [2] [µM]	Ki (Trypsin) [µM]	Ki (Coagulation factor X) [nM]	IC200 [3] [µM]	IC200 (Plasma [4]) [µM]	IC200 (Plasma [5]) [µM]	Papp [6] [×10⁻⁶ cm/s]	half-life [7] [min]	bioavailability [8] [%]	CL_biliary (Rattus norvegicus) [%]	dose excreted [9] [%]
CC(C)OC(=O)CS(=O)(=O)NC(CCc1cccc[n+]1[O-])C(=O)NCC(=O)NCc1cc(Cl)ccc1CN (stereo unspecified)	0.53	> 5	> 5	> 0.5	0.76	–	–	–	–	–	–	–	–
NCc1ccc(Cl)cc1CNC(=O)CNC(=O)C(CCc1cccc[n+]1[O-])NS(=O)(=O)CC(=O)O (stereo unspecified)	8.3	> 5	> 5	> 0.5	–	0.89	57	–	–	–	–	–	–
NCc1ccc(Cl)cc1CNC(=O)CNC(=O)C(CCc1cccc[n+]1[O-])NC(=O)C(=O)O (stereo unspecified)	18	> 5	> 5	> 0.5	4.9	1.85	15	0.13	–	30	–	–	–
NCc1ccc(Cl)cc1CNC(=O)CNC(=O)C(CCc1cccc[n+]1[O-])NS(=O)(=O)Cc1ccc(CC(=O)O)cc1 (stereo unspecified)	0.93	> 5	> 5	> 0.5	–	0.49	1.2	0.29	–	–	–	–	–
NCc1ccc(Cl)cc1CNC(=O)[C@@H]1CCCN1C(=O)[C@@H](CCc1cccc[n+]1[O-])NS(=O)(=O)CC(=O)O	0.0077	> 5	> 5	0.061	–	0.15	0.11	–	–	–	–	–	–
NCc1ccc(Cl)cc1CNC(=O)[C@@H]1CCCN1C(=O)[C@@H](CCc1cccc[n+]1[O-])NCC(=O)O	0.0173	> 5	> 5	> 0.5	0.94	0.32	0.17	–	–	–	–	–	–
CCOC(=O)CN[C@H](CCc1ccccn1)C(=O)N1CCC[C@H]1C(=O)NCc1cc(Cl)ccc1CN	0.0038	> 5	> 5	> 0.5	–	0.23	0.09	0.6	2.4	–	–	–	–
NCc1ccc(Cl)cc1CNC(=O)[C@@H]1CCCN1C(=O)[C@@H](CCc1ccccn1)NCC(=O)O	–	> 5	> 5	> 0.5	–	0.16	0.03	0.35	5	–	–	–	–
N=C(N)c1ccc(CNC(=O)CNC(=O)[C@@H](CCc2cccc[n+]2[O-])NS(=O)(=O)Cc2ccccc2)cc1	2.7	–	–	0.0063	0.32	–	–	–	–	–	–	–	–
COC(=O)C(=O)NC(CCc1cccc[n+]1[O-])C(=O)NCC(=O)NCc1cc(Cl)ccc1CN (stereo unspecified)	6.5	> 5	> 5	> 0.5	4.9	–	–	–	–	–	–	–	–
NCc1ccc(Cl)cc1CNC(=O)[C@@H]1CCCN1C(=O)[C@@H](CCc1ccc(O)cc1)NCC(=O)O	0.0032	> 5	> 5	> 0.5	–	0.47	0.15	0.73	–	–	–	–	–
NCc1ccc(Cl)cc1CNC(=O)[C@H](CO)NC(=O)[C@@H](CCc1cccc[n+]1[O-])NS(=O)(=O)Cc1ccccc1	–	> 5	> 5	> 0.5	–	–	–	–	–	–	–	–	–
NCc1ccc(Cl)cc1CNC(=O)[C@@H]1CCCN1C(=O)[C@@H](CCc1cccc[n+]1[O-])NS(=O)(=O)Cc1ccccc1	0.00056	> 5	> 5	0.019	–	–	–	–	–	–	–	–	–
NCc1ccc(Cl)cc1CNC(=O)CNC(=O)C(CCc1cccc[n+]1[O-])NCC(=O)O (stereo unspecified)	125	> 5	> 5	> 0.5	–	6	>100	3.3	–	–	–	–	–
O=C(CNC(=O)C(CCc1cccc[n+]1[O-])NS(=O)(=O)Cc1ccccc1)NCc1cc(Cl)ccc1Cl (stereo unspecified)	7.6	> 5	> 5	> 0.5	2.55	–	–	–	–	–	–	–	–
NCc1ccc(Cl)cc1CNC(=O)CNC(=O)[C@@H](CCc1cccc[n+]1[O-])NS(=O)(=O)Cc1ccccc1	0.17	150	930	6.5	–	0.16	0.5	–	–	< 20	< 5	75	15
COC(=O)C(=O)N[C@H](CCc1cccc[n+]1[O-])C(=O)N1CCC[C@H]1C(=O)NCc1cc(Cl)ccc1CN	0.0177	> 5	> 5	> 0.5	0.63	0.3	0.13	0.79	–	–	–	–	–
COC(=O)Cc1ccc(CS(=O)(=O)NC(CCc2cccc[n+]2[O-])C(=O)NCC(=O)NCc2cc(Cl)ccc2CN)cc1 (stereo unspecified)	1.01	> 5	> 5	> 0.5	–	–	–	–	–	–	–	–	–

Source: ChEMBL document CHEMBL1145355, “From selective substrate analogue factor Xa inhibitors to dual inhibitors of thrombin and factor Xa. Part 3” (Bioorg Med Chem Lett, 2007)
